The values that follow come from article PMC8146883, “A New Thermophilic Ene-Reductase from the Filamentous Anoxygenic Phototrophic Bacterium Chloroflexus aggregans” (Microorganisms, 2021).

The target of this test is T1, CaOYE (Chloroflexus aggregans, UniProt B8G5D6).
T1 construct: gene Cagg_2779; full-length ORF in pET-28a(+) (NdeI/BamHI), N-terminal His6-tag, E. coli BL21(DE3); model visible Met1 to Trp354; monomer in solution, dimer in crystal
Briefly: X-ray crystal structure, […] Å. Conditions: non-covalent, active site; crystals from 100 mM HEPES pH 7.0, 1.1 M sodium malonate. Type of test: binding.

T1 sequence (B8G5D6 whole entry): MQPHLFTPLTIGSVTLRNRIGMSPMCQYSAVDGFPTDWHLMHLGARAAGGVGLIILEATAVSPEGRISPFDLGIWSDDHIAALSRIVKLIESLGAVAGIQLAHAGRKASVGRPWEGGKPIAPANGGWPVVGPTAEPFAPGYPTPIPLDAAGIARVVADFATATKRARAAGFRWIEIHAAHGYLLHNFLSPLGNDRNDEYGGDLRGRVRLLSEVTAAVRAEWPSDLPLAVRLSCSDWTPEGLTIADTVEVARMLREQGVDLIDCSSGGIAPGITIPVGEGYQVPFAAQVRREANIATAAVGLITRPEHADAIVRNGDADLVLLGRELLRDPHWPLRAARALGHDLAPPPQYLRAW

As for `Cc1cc2nc3c(=O)[nH]c(=O)nc-3n(C[C@H](O)[C@H](O)[C@H](O)COP(=O)(O)O)c2cc1C` [FMN], the “X-ray crystal structure, 2.40 Å” value is “The enzyme accommodates one molecule of FMN cofactor on the top of the β-barrel core”.
